Test results from ChEMBL document CHEMBL1933065, “Synthesis and antifungal evaluation of pyrido[1,2-a]indole-1,4-diones and benzo[f]pyrido[1,2-a]indole-6,11-diones” (2012).
Converted amounts (≈) assume the structure as drawn.

Legend:
Type in all cases: functional
Candida tropicalis = experiment: Antifungal activity against Candida tropicalis Berkout KCCM 50662 after 1 day by two fold broth dilution method; conditions: Berkout KCCM 50662, 24 h
Candida albicans = experiment: Antifungal activity against Candida albicans Berkout KCCM 50235 after 1 day by standard two fold broth dilution method; conditions: Berkout KCCM 50235, 24 h
Pichia kudriavzevii = experiment: Antifungal activity against Candida krusei Berkout KCCM 11655 after 1 day by two fold broth dilution method; conditions: Berkout KCCM 11655, 24 h
Cryptococcus neoformans = experiment: Antifungal activity against Cryptococcus neoformans Berkout KCCM 50564 after 1 day by two fold broth dilution method; conditions: Berkout KCCM 50564, 24 h
Aspergillus niger = experiment: Antifungal activity against Aspergillus niger KCTC 1231 after 2 days by two fold broth dilution method; conditions: KCTC 1231, 48 h
Aspergillus flavus = experiment: Antifungal activity against Aspergillus flavus KCCM 11899 after 2 days by two fold broth dilution method; conditions: KCCM 11899, 48 h

Row | SMILES | MIC (Candida tropicalis) | MIC (Candida albicans) | MIC (Pichia kudriavzevii) | MIC (Cryptococcus neoformans) | MIC (Aspergillus niger) | MIC (Aspergillus flavus)
1 | CC(=O)c1c2c(n3ccc(C)cc13)C(=O)C(C)=C(C)C2=O | 6.3 µg/mL (≈ 22.4 µM) | 1.6 µg/mL (≈ 5.69 µM) | 12.5 µg/mL (≈ 44.4 µM) | 1.6 µg/mL (≈ 5.69 µM) | 3.2 µg/mL (≈ 11.4 µM) | 3.2 µg/mL (≈ 11.4 µM)
2 | COc1ccn2c3c(c(C(C)=O)c2c1)C(=O)C(C)=C(C)C3=O | 25 µg/mL (≈ 84.1 µM) | 25 µg/mL (≈ 84.1 µM) | 3.2 µg/mL (≈ 10.8 µM) | 6.3 µg/mL (≈ 21.2 µM) | 3.2 µg/mL (≈ 10.8 µM) | 25 µg/mL (≈ 84.1 µM)
3 | CCc1ccn2c3c(c(C(C)=O)c2c1)C(=O)C(C)=C(C)C3=O | 12.5 µg/mL (≈ 42.3 µM) | 6.3 µg/mL (≈ 21.3 µM) | 3.2 µg/mL (≈ 10.8 µM) | 6.3 µg/mL (≈ 21.3 µM) | 1.6 µg/mL (≈ 5.42 µM) | 3.2 µg/mL (≈ 10.8 µM)
4 | CC(=O)c1c2c(n3cc(Cl)ccc13)C(=O)C(C)=C(C)C2=O | 12.5 µg/mL (≈ 41.4 µM) | 6.3 µg/mL (≈ 20.9 µM) | 3.2 µg/mL (≈ 10.6 µM) | 6.3 µg/mL (≈ 20.9 µM) | 1.6 µg/mL (≈ 5.3 µM) | 3.2 µg/mL (≈ 10.6 µM)
5 | CCOC(=O)c1c2c(n3ccc(C)cc13)C(=O)C(C)=C(C)C2=O | 50 µg/mL (≈ 161 µM) | 6.3 µg/mL (≈ 20.2 µM) | 6.3 µg/mL (≈ 20.2 µM) | 12.5 µg/mL (≈ 40.1 µM) | 3.2 µg/mL (≈ 10.3 µM) | 6.3 µg/mL (≈ 20.2 µM)
6 | CCOC(=O)c1c2c(n3ccc(OC)cc13)C(=O)C(C)=C(C)C2=O | 6.3 µg/mL (≈ 19.2 µM) | 12.5 µg/mL (≈ 38.2 µM) | 6.3 µg/mL (≈ 19.2 µM) | 50 µg/mL (≈ 153 µM) | 3.2 µg/mL (≈ 9.78 µM) | 3.2 µg/mL (≈ 9.78 µM)
7 | CCOC(=O)c1c2c(n3cc(C)ccc13)C(=O)C(C)=C(C)C2=O | 12.5 µg/mL (≈ 40.1 µM) | 12.5 µg/mL (≈ 40.1 µM) | 12.5 µg/mL (≈ 40.1 µM) | 3.2 µg/mL (≈ 10.3 µM) | 25 µg/mL (≈ 80.3 µM) | 12.5 µg/mL (≈ 40.1 µM)
8 | COC(=O)c1c2c(n3ccc(OC)cc13)C(=O)C(C)=C(C)C2=O | 25 µg/mL (≈ 79.8 µM) | 6.3 µg/mL (≈ 20.1 µM) | 12.5 µg/mL (≈ 39.9 µM) | 1.6 µg/mL (≈ 5.11 µM) | 25 µg/mL (≈ 79.8 µM) | 25 µg/mL (≈ 79.8 µM)
9 | CCc1ccn2c3c(c(C(=O)OC)c2c1)C(=O)C(C)=C(C)C3=O | 12.5 µg/mL (≈ 40.1 µM) | 3.2 µg/mL (≈ 10.3 µM) | 25 µg/mL (≈ 80.3 µM) | 0.8 µg/mL (≈ 2.57 µM) | 1.6 µg/mL (≈ 5.14 µM) | 6.3 µg/mL (≈ 20.2 µM)
10 | COC(=O)c1c2c(n3ccc(C)cc13)C(=O)C(C)=C(C)C2=O | 6.3 µg/mL (≈ 21.2 µM) | 6.3 µg/mL (≈ 21.2 µM) | 6.3 µg/mL (≈ 21.2 µM) | 25 µg/mL (≈ 84.1 µM) | 6.3 µg/mL (≈ 21.2 µM) | 3.2 µg/mL (≈ 10.8 µM)
11 | CC1=C(C)C(=O)c2c(cc3cc(C)ccn23)C1=O | 6.3 µg/mL (≈ 26.3 µM) | 12.5 µg/mL (≈ 52.2 µM) | 12.5 µg/mL (≈ 52.2 µM) | 6.3 µg/mL (≈ 26.3 µM) | 12.5 µg/mL (≈ 52.2 µM) | 1.6 µg/mL (≈ 6.69 µM)
12 | COc1ccn2c3c(cc2c1)C(=O)C(C)=C(C)C3=O | 6.3 µg/mL (≈ 24.7 µM) | 6.3 µg/mL (≈ 24.7 µM) | 12.5 µg/mL (≈ 49 µM) | 1.6 µg/mL (≈ 6.27 µM) | 12.5 µg/mL (≈ 49 µM) | 6.3 µg/mL (≈ 24.7 µM)
13 | CCOC(=O)c1c2c(n3ccccc13)C(=O)C(C)=C(C)C2=O | 6.3 µg/mL (≈ 21.2 µM) | 12.5 µg/mL (≈ 42 µM) | 3.2 µg/mL (≈ 10.8 µM) | 6.3 µg/mL (≈ 21.2 µM) | 6.3 µg/mL (≈ 21.2 µM) | 3.2 µg/mL (≈ 10.8 µM)
14 | CCOC(=O)c1c2c(n3ccc(C#N)cc13)C(=O)C(C)=C(C)C2=O | 3.2 µg/mL (≈ 9.93 µM) | 3.2 µg/mL (≈ 9.93 µM) | 6.3 µg/mL (≈ 19.5 µM) | 6.3 µg/mL (≈ 19.5 µM) | 6.3 µg/mL (≈ 19.5 µM) | 3.2 µg/mL (≈ 9.93 µM)
15 | CCOC(=O)c1c2c(n3ccc(CC)cc13)C(=O)C(C)=C(C)C2=O | 12.5 µg/mL (≈ 38.4 µM) | 6.3 µg/mL (≈ 19.4 µM) | 6.3 µg/mL (≈ 19.4 µM) | 6.3 µg/mL (≈ 19.4 µM) | 12.5 µg/mL (≈ 38.4 µM) | 6.3 µg/mL (≈ 19.4 µM)
16 | CCc1ccn2c3c(c(C(C)=O)c2c1)C(=O)c1ccccc1C3=O | > 100 µg/mL | 50 µg/mL (≈ 158 µM) | 50 µg/mL (≈ 158 µM) | 25 µg/mL (≈ 78.8 µM) | 25 µg/mL (≈ 78.8 µM) | 12.5 µg/mL (≈ 39.4 µM)
17 | COc1ccc2c(C(C)=O)c3c(n2c1)C(=O)c1ccccc1C3=O | 3.2 µg/mL (≈ 10 µM) | 3.2 µg/mL (≈ 10 µM) | 6.3 µg/mL (≈ 19.7 µM) | 12.5 µg/mL (≈ 39.1 µM) | 6.3 µg/mL (≈ 19.7 µM) | 12.5 µg/mL (≈ 39.1 µM)
18 | CCOC(=O)c1c2c(n3ccc(C)cc13)C(=O)c1ccccc1C2=O | 3.2 µg/mL (≈ 9.6 µM) | 6.3 µg/mL (≈ 18.9 µM) | 12.5 µg/mL (≈ 37.5 µM) | 6.3 µg/mL (≈ 18.9 µM) | 12.5 µg/mL (≈ 37.5 µM) | 25 µg/mL (≈ 75 µM)

Row | SMILES | MIC (Candida tropicalis) | MIC (Candida albicans) | MIC (Pichia kudriavzevii) | MIC (Cryptococcus neoformans) | MIC (Aspergillus niger) | MIC (Aspergillus flavus)
19 | CCOC(=O)c1c2c(n3ccc(OC)cc13)C(=O)c1ccccc1C2=O | 25 µg/mL (≈ 71.6 µM) | 12.5 µg/mL (≈ 35.8 µM) | 25 µg/mL (≈ 71.6 µM) | 3.2 µg/mL (≈ 9.16 µM) | 6.3 µg/mL (≈ 18 µM) | 12.5 µg/mL (≈ 35.8 µM)
20 | CCOC(=O)c1c2c(n3ccc(CC)cc13)C(=O)c1ccccc1C2=O | 50 µg/mL (≈ 144 µM) | 25 µg/mL (≈ 72 µM) | > 100 µg/mL | 25 µg/mL (≈ 72 µM) | > 100 µg/mL | 50 µg/mL (≈ 144 µM)
21 | CCOC(=O)c1c2c(n3cc(C)ccc13)C(=O)c1ccccc1C2=O | 6.3 µg/mL (≈ 18.9 µM) | 12.5 µg/mL (≈ 37.5 µM) | 25 µg/mL (≈ 75 µM) | 12.5 µg/mL (≈ 37.5 µM) | 3.2 µg/mL (≈ 9.6 µM) | 25 µg/mL (≈ 75 µM)
22 | COC(=O)c1c2c(n3ccc(OC)cc13)C(=O)c1ccccc1C2=O | 50 µg/mL (≈ 149 µM) | 25 µg/mL (≈ 74.6 µM) | 50 µg/mL (≈ 149 µM) | 25 µg/mL (≈ 74.6 µM) | 3.2 µg/mL (≈ 9.54 µM) | 12.5 µg/mL (≈ 37.3 µM)
23 | CCc1ccn2c3c(c(C(=O)OC)c2c1)C(=O)c1ccccc1C3=O | 12.5 µg/mL (≈ 37.5 µM) | 6.3 µg/mL (≈ 18.9 µM) | 50 µg/mL (≈ 150 µM) | 12.5 µg/mL (≈ 37.5 µM) | 3.2 µg/mL (≈ 9.6 µM) | 25 µg/mL (≈ 75 µM)
24 | COC(=O)c1c2c(n3cc(C)ccc13)C(=O)c1ccccc1C2=O | > 100 µg/mL | 25 µg/mL (≈ 78.3 µM) | 50 µg/mL (≈ 157 µM) | 25 µg/mL (≈ 78.3 µM) | 25 µg/mL (≈ 78.3 µM) | 50 µg/mL (≈ 157 µM)
25 | Cc1ccn2c3c(cc2c1)C(=O)c1ccccc1C3=O | 12.5 µg/mL (≈ 47.8 µM) | 12.5 µg/mL (≈ 47.8 µM) | 6.3 µg/mL (≈ 24.1 µM) | 6.3 µg/mL (≈ 24.1 µM) | 50 µg/mL (≈ 191 µM) | 3.2 µg/mL (≈ 12.2 µM)
26 | COc1ccn2c3c(cc2c1)C(=O)c1ccccc1C3=O | 25 µg/mL (≈ 90.2 µM) | 50 µg/mL (≈ 180 µM) | > 100 µg/mL | > 100 µg/mL | 25 µg/mL (≈ 90.2 µM) | 6.3 µg/mL (≈ 22.7 µM)
27 | Cc1ccn2c3c(c(C)c2c1)C(=O)c1ccccc1C3=O | 12.5 µg/mL (≈ 45.4 µM) | 6.3 µg/mL (≈ 22.9 µM) | 50 µg/mL (≈ 182 µM) | 12.5 µg/mL (≈ 45.4 µM) | 3.2 µg/mL (≈ 11.6 µM) | 25 µg/mL (≈ 90.8 µM)
28 | COc1ccn2c3c(c(C)c2c1)C(=O)c1ccccc1C3=O | > 100 µg/mL | 25 µg/mL (≈ 85.8 µM) | 50 µg/mL (≈ 172 µM) | 25 µg/mL (≈ 85.8 µM) | 25 µg/mL (≈ 85.8 µM) | 50 µg/mL (≈ 172 µM)
29 | CCc1ccn2c3c(c(C)c2c1)C(=O)c1ccccc1C3=O | 12.5 µg/mL (≈ 43.2 µM) | 12.5 µg/mL (≈ 43.2 µM) | 6.3 µg/mL (≈ 21.8 µM) | 6.3 µg/mL (≈ 21.8 µM) | 50 µg/mL (≈ 173 µM) | 3.2 µg/mL (≈ 11.1 µM)
30 | CC1=C(C)C(=O)C([n+]2ccc(C)cc2)=C(Cl)C1=O.[Cl-] | 6.3 µg/mL | 12.5 µg/mL | 6.3 µg/mL | 3.2 µg/mL | 25 µg/mL | 6.3 µg/mL
31 | COc1cc[n+](C2=C(Cl)C(=O)C(C)=C(C)C2=O)cc1.[Cl-] | 100 µg/mL | 25 µg/mL | 12.5 µg/mL | 6.3 µg/mL | 25 µg/mL | 25 µg/mL
32 | Cc1cc[n+](C2=C(Cl)C(=O)c3ccccc3C2=O)cc1.[Cl-] | > 100 µg/mL | > 100 µg/mL | > 100 µg/mL | > 100 µg/mL | 50 µg/mL | > 100 µg/mL
33 | COc1cc[n+](C2=C(Cl)C(=O)c3ccccc3C2=O)cc1.[Cl-] | 50 µg/mL | > 100 µg/mL | > 100 µg/mL | 50 µg/mL | > 100 µg/mL | > 100 µg/mL
34 | CCOC(=O)c1c2c(n3ccccc13)C(=O)c1ccccc1C2=O | 25 µg/mL (≈ 78.3 µM) | > 100 µg/mL | 12.5 µg/mL (≈ 39.1 µM) | 25 µg/mL (≈ 78.3 µM) | 12.5 µg/mL (≈ 39.1 µM) | 6.3 µg/mL (≈ 19.7 µM)
35 | OC(Cn1cncn1)(Cn1cncn1)c1ccc(F)cc1F [FLUCONAZOLE] | 3.2 µg/mL (≈ 10.4 µM) | 50 µg/mL (≈ 163 µM) | 25 µg/mL (≈ 81.6 µM) | 6.3 µg/mL (≈ 20.6 µM) | 6.3 µg/mL (≈ 20.6 µM) | 25 µg/mL (≈ 81.6 µM)
36 | Nc1nc(=O)[nH]cc1F [FLUCYTOSINE] | 6.3 µg/mL (≈ 48.8 µM) | 3.2 µg/mL (≈ 24.8 µM) | 6.3 µg/mL (≈ 48.8 µM) | 6.3 µg/mL (≈ 48.8 µM) | 6.3 µg/mL (≈ 48.8 µM) | 25 µg/mL (≈ 194 µM)
